This experiment has as its target T1, human PAD4 (Homo sapiens, UniProt Q9UM07).
T1 construct: human PAD4 (NM_012387), A2-P663, was PCR amplified; His-SUMO (N, cleaved yes); made in house; host or cells: E. coli BL21(DE3)
The experiment is described as follows: In vitro PAD4 BAEE biochemical assay. Particulars: BAEE substrate 3 mM, 5 nM PAD4, 2 mM calcium chloride; geometric mean of multiple experiments. The method in brief:
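Recombinant human PAD4 (5 nM final) with 2 mM CaCl2 was preincubated with compound 30 min at 25 °C in MOPS buffer pH 7.6, then reacted with 3 mM BAEE for 2 h at 25 °C. After EDTA stop, released ammonia was detected by o-phthalaldehyde/DTT fluorescence (ex 405/em 535 nm); IC50 from four-parameter fit, geometric mean.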

The results in this text go back to patent US11976083B2, “Inhibitors of peptidylarginine deiminases” (Gilead Sciences, Inc., priority 2020, dated 2024).

Usually IC50 stands for the point on the concentration scale where inhibition reaches its midpoint.

T1 sequence (Q9UM07 2-663): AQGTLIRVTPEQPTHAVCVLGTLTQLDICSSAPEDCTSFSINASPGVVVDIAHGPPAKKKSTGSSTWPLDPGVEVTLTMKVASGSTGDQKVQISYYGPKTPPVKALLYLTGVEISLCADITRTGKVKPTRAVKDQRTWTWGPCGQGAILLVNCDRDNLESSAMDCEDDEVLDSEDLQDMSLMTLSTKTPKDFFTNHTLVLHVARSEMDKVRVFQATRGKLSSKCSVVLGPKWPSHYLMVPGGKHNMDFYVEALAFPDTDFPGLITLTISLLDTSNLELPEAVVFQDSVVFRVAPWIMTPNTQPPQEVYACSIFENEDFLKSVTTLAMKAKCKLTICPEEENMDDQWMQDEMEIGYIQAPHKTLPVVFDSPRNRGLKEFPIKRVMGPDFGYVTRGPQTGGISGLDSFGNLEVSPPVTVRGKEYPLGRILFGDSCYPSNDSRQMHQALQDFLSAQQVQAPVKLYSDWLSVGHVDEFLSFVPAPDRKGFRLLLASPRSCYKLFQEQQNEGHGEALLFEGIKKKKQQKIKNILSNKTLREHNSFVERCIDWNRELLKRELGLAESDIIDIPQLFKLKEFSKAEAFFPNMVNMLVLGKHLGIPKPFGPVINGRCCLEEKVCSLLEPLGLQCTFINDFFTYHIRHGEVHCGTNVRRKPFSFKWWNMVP

For `COc1cc(C(=O)N2CC[C@@H](OC)[C@@H](N)C2)cc2nc(-c3cc4ccc5nc4n3CCCCCc3cnc(C)nc3C(=O)N[C@@H]5C)n(C)c12` [Example 610, (2~{R})-17-[5-[(3~{S},4~ {R})-3-amino-4-methoxy-piperidine-1-carbonyl]-7-methoxy-1-methyl-benzimidazol-2-yl]-2,7-dimethyl-3,6,8,16,22-pentazatetracyclo[14.5.2.0^ {5,10}.0^{19,23}]tricosa-1(21),5(10),6,8,17,19,22-heptaen-4-one], the IC50 amounted to 190 nM.

In the case of `COc1cc(C(=O)N2C[C@H](N)[C@@H]3CC[C@H]2C3)cc2nc(-c3cc4ccc5nc4n3CCCCCC[C@@](C)(F)C(=O)N[C@@H]5C)n(C)c12` [Example 948, (8~{R},11~{R})-17-[5-[(1~{S},4~{R},5~{R})-4-amino-2-azabicyclo[3.2.1]octane-2-carbonyl]-7-methoxy-1-methyl-benzimidazol-2-yl]-8-fluoro-8,11-dimethyl-1,10,19-triazatricyclo[10.5.2.0^ {15,18}]nonadeca-12(19), 13,15(18),16-tetraen-9-one], the IC50 was found to be 28 nM.

Consider `COc1cc(C(=O)N2CC[C@H]3OCCN[C@H]3C2)cc2nc(-c3cc4ccc5nc4n3CCCCCCC3(CC3)C(=O)N[C@@H]5C)n(C)c12` [Example 343, (11~{R})-17-[5-[(4~{a}~{S),8~{a}~{R})-2,3,4,4~{a},5,7,8,8~{a}-octahydropyrido[4,3-b][1,4]oxazine-6-carbonyl]-7-methoxy-1-methyl-benzimidazol-2-yl]-11-methyl-spiro[1,10,19-triazatricyclo[10.5.2.0^{15,18}]nonadeca-12(19),13,15(18),16-tetraene-8,1′-cyclopropane]-9-one], for which the IC50 came out at 371 nM.

As to `COc1cc(C(=O)N2[C@H]3CC[C@@H]2[C@H](N)C3)cc2nc(-c3cc4ccc5nc4n3CCCCCC[C@@](C)(C(F)(F)F)C(=O)N[C@@H]5C)n(C)c12` [Example 12, (8~{R},11~{R})-17-[5-[(1~{R},2~{R},4~{S})-2-amino-7-azabicyclo[2.2.1]heptane-7-carbonyl]-7-methoxy-1-methyl-benzimidazol-2-yl]-8,11-dimethyl-8-(trifluoromethyl)-1,10,19-triazatricyclo[10.5.2.0^{15,18}]nonadeca-12(19),13,15(18),16-tetraen-9-one], the IC50 came to 120 nM.

In the case of `COc1cc(C(=O)N2CC[C@@H](OC(F)F)[C@@H](N)C2)cc2nc(-c3cc4ccc5nc4n3CCCCCc3nc4ccccc4nc3C(=O)N[C@@H]5C)n(C)c12` [Example 824, (2~{R})-21-[5-[(3~{S},4~{R})-3-amino-4-(difluoromethoxy)piperidine-1-carbonyl]-7-methoxy-1-methyl-benzimidazol-2-yl]-2-methyl-3,6,13,20,26-pentazapentacyclo [18.5.2.0^{5,14).0^{7, 12}.0^{23,27}]heptacosa-1(26),5,7(12),8,10,13,21, 23(27),24-nonaen-4-one], the IC50 was found to be 43 nM.

Turning to `COc1cc(C(=O)N2CC[C@@H](OC)[C@@H](N)C2)cc2nc(-c3cc4ccc5nc4n3CCCCCc3cncc(F)c3C(=O)N[C@@H]5C)n(C)c12` [Example 650, (2~{R})-17-[5-[(3~{S}, 4~{R})-3-amino-4-methoxy-piperidine-1-carbonyl]-7-methoxy-1-methyl-benzimidazol-2-yl]-6-fluoro-2-methyl-3,8,16,22-tetrazatetracyclo[14.5.2.0^ {5,10}.0^{19,23}]tricosa-1(22),5,7,9,17,19(23),20-heptaen-4-one], the half-inhibitory concentration (IC50) was determined as 59 nM.

As for `C[C@H]1NC(=O)[C@@H]2C[C@H]2CCCCCn2c(-c3nc4cc(C(=O)N[C@H]5CNCC[C@@H]5F)c(F)cc4n3CCC(N)=O)cc3ccc1nc32` [Example 428, 1-(3-amino-3-oxo-propyl)-6-fluoro-~ {N}-[(3~{S},4~{S})-4-fluoro-3-piperidyl]-2-[(2~{R},5~{R},7~{R})-2-methyl-4-oxo-3,13,19-triazatetracyclo[11.5.2.0^{5,7}.0^{16,20}]icosa-1(19),14,16(20),17-tetraen-14-yl]benzimidazole-5-carboxamide], the IC50 was determined as 29 nM.

As for `COc1cc(C(=O)N2[C@H]3CC[C@@H]2[C@H](N)C3)cc2nc(-c3cc4ccc5cc4n3CCCCCCC3(CC3)C(=O)N[C@@H]5C)n(C)c12` [Example 221, (11~{R})-17-[5-[(1~{R},2~{R},4~{S})-2-amino-7-azabicyclo[2.2.1]heptane-7-carbonyl]-7-methoxy-1-methyl-benzimidazol-2-yl]-11-methyl-spiro[1,10-diazatricyclo[10.5.2.0^{15,18}]nonadeca-12(19),13,15(18),16-tetraene-8,1′-cyclopropane]-9-one], the half-inhibitory concentration (IC50) came to 32 nM.

Take `C[C@H]1NC(=O)C2(CC2)OCCCC(F)(F)Cn2c(-c3nc4cc(C(=O)N5C[C@H](N)[C@@H]6CC[C@H]5C6)cc(F)c4n3C3CC3)cc3ccc1nc32` [Example 773, (11~{R})-17-[5-[(1~{S},4~{R}, 5~{R})-4-amino-2-azabicyclo [3.2.1]octane-2-carbonyl]-1-cyclopropyl-7-fluoro-benzimidazol-2-yl]-3,3-difluoro-11-methyl-spiro[7-oxa-1,10,19-triazatricyclo[10.5.2.0^ {15,18}]nonadeca-12(19),13,15(18),16-tetraene-8,1′-cyclopropane]-9-one]: the half-inhibitory concentration (IC50) came out at 16 nM.

For the compound `C[C@H]1NC(=O)c2cnc(Cl)cc2CCCCCn2c(-c3nc4cc(C(=O)N[C@H]5CNCC[C@@H]5F)c(F)cc4n3C3CC3)cc3ccc1nc32` [Example 357, 2-[(2~{R})-8-chloro-2-methyl-4-oxo-3,7,16,22-tetrazatetracyclo[14.5.2.0^{5,10}.0^{19,23}]tricosa-1(22),5,7,9,17,19(23),20-heptaen-17-yl]-1-cyclopropyl-6-fluoro-~ {N}-[(3~{S},4~{S})-4-fluoro-3-piperidyl]benzimidazole-5-carboxamide], the IC50 is 31 nM.

Turning to `COc1cc(C(=O)N2C[C@H](N)C[C@@H](F)[C@@H]2C)cc2nc(-c3cc4ccc5nc4n3CC(F)(F)CCCC3C[C@H]3C(=O)N[C@@H]5C)n(C)c12` (some centres unmarked) [Example 792, (2~{R},5~{R),7~{R})-14-[5-[(2~{S),3~{R},5~{R})-5-amino-3-fluoro-2-methyl-piperidine-1-carbonyl]-7-methoxy-1-methyl-benzimidazol-2-yl]-11,11-difluoro-2-methyl-3,13,19-triazatetracyclo [11.5.2.0^{5,7}.0^{16,20}] icosa-1(18),14,16,19-tetraen-4-one], the IC50 came out at 342 nM.

Regarding `COc1cc(C(=O)N2CCC[C@@H](N)C2)cc2nc(-c3cc4ccc5nc4n3C[C@@H]3C[C@H]3CCCCC(=O)N[C@@H]5C)n(C)c12` [Example 269, (3~{R},5~{R},12~{R})-18-[5-[(3~{R})-3-aminopiperidine-1-carbonyl]-7-methoxy-1-methyl-benzimidazol-2-yl]-12-methyl-1,11,20-triazatetracyclo[11.5.2.0^{3,5}.0^{16,19}] icosa-13(20),14,16(19),17-tetraen-10-one], the IC50 was 36 nM.

For `C[C@H]1NC(=O)[C@@H]2C[C@H]2CCCC(F)(F)Cn2c(-c3nc4cc(C(=O)N5C[C@H](N)[C@@H]6CC[C@H]5C6)cc(F)c4n3[C@H]3C[C@@H]3C(F)F)cc3ccc1nc32` (single isomer, unassigned) [Example 453, (2~{R},5~{R},7~{R})-14-[5-[(1~{S},4~{R},5~{R})-4-amino-2-azabicyclo[3.2.1]octane-2-carbonyl]-1-[(1~{S},2~{S})-2-(difluoromethyl)cyclopropyl]-7-fluoro-benzimidazol-2-yl]-11,11-difluoro-2-methyl-3,13,19-triazatetracyclo[11.5.2.0^{5,7}.0^{16,20}] icosa-1(19),14,16(20),17-tetraen-4-one], the IC50 was 53 nM.

Regarding `COc1cc(C(=O)N2CC[C@@H](OC(F)F)[C@@H](N)C2)cc2nc(-c3cc4ccc5nc4n3CC(F)(F)CCC[C@@H]3C[C@H]3C(=O)N[C@@H]5C)n(C)c12` [Example 850, (2~{R},5~{R},7~{R})-14-[5-[(3~{S},4~{R})-3-amino-4-(difluoromethoxy)piperidine-1-carbonyl]-7-methoxy-1-methyl-benzimidazol-2-yl]-11,11-difluoro-2-methyl-3,13,19-triazatetracyclo[11.5.2.0^ {5,7}.0^{16,20}]icosa-1(19), 14,16(20),17-tetraen-4-one], the IC50 turned out to be 64 nM.

`COc1cc(C(=O)N2[C@H]3CC[C@@H]2[C@H](N)C3)cc2nc(-c3cc4ccc5nc4n3CCCCCCCC3(CCC3)C(=O)N[C@@H]5C)n(C)c12` [Example 280]: the IC50 is 64 nM.

On to `Cc1cc2c(cc1C(=O)N[C@H]1CNCC[C@@H]1F)nc(-c1cc3ccc4nc3n1CC(F)(F)/C=C/C[C@H]1C[C@@H]1C(=O)N[C@@H]4C)n2C` [Example 550, 2-[(2~{R},5~{S},7~ {S},9~{E})-11,11-difluoro-2-methyl-4-oxo-3,13,19-triazatetracyclo [11.5.2.0^{5,7}.0^{16,20}]icosa-1(19),9,14,16(20), 17-pentaen-14-yl]-~{N}-[(3~{S},4~{S})-4-fluoro-3-piperidyl]-1,6-dimethyl-benzimidazole-5-carboxamide], for which the IC50 is 60 nM.

`COc1cc(C(=O)N2[C@H]3CC[C@@H]2[C@H](N)C3)cc2nc(-c3cc4ccc5nc4n3CCCCCCNC(=O)c3ncccc3-5)n(C)c12` [Example 91, 17-[5-[(1˜{R},2˜{R},4˜{S})-2-amino-7-azabicyclo[2.2.1]heptane-7-carbonyl]-7-methoxy-1-methyl-benzimidazol-2-yl]-6,9,16,22-tetrazatetracyclo[14.5.2.0^{2,7}.0^{19,23}]tricosa-1(22),2,4,6,17,19(23),20-heptaen-8-one]: the IC50 was 82 nM.
